PMC11619344 (Antimicrobial Agents and Chemotherapy, 2024)
≈ marks a conversion by molar mass, not a printed value.

What was measured:
[1] = tested on: K. pneumoniae ST512/KPC-31 (KPC-3 D179Y) parental clinical isolate; assay: MIC, broth microdilution; format: cell-based; conditions: Klebsiella pneumoniae
[2] = tested on: ST512/KPC-31 mutant IMI 1.1; assay: MIC, broth microdilution; format: cell-based; conditions: Klebsiella pneumoniae
[3] = tested on: ST512/KPC-31 mutant IMI 1.2; assay: MIC, broth microdilution; format: cell-based; conditions: Klebsiella pneumoniae
[4] = tested on: ST512/KPC-31 mutant IMI 2.1; assay: MIC, broth microdilution; format: cell-based; conditions: Klebsiella pneumoniae
[5] = tested on: ST512/KPC-31 mutant IMI 2.2; assay: MIC, broth microdilution; format: cell-based; conditions: Klebsiella pneumoniae
[6] = tested on: ST512/KPC-31 mutant IMI 3.1; assay: MIC, broth microdilution; format: cell-based; conditions: Klebsiella pneumoniae
[7] = tested on: ST512/KPC-31 mutant IMI 3.2; assay: MIC, broth microdilution; format: cell-based; conditions: Klebsiella pneumoniae
[8] = tested on: K. pneumoniae ST258/KPC-35 (KPC-2 L169P) parental clinical isolate; assay: MIC, broth microdilution; format: cell-based; conditions: Klebsiella pneumoniae
[9] = tested on: ST258/KPC-35 mutant IMI 1.1; assay: MIC, broth microdilution; format: cell-based; conditions: Klebsiella pneumoniae
[10] = tested on: ST258/KPC-35 mutant IMI 1.2; assay: MIC, broth microdilution; format: cell-based; conditions: Klebsiella pneumoniae
[11] = tested on: ST258/KPC-35 mutant IMI 2.1; assay: MIC, broth microdilution; format: cell-based; conditions: Klebsiella pneumoniae
[12] = tested on: ST258/KPC-35 mutant IMI 2.2; assay: MIC, broth microdilution; format: cell-based; conditions: Klebsiella pneumoniae
[13] = tested on: ST258/KPC-35 mutant IMI 3.1; assay: MIC, broth microdilution; format: cell-based; conditions: Klebsiella pneumoniae
[14] = tested on: ST258/KPC-35 mutant IMI 3.2; assay: MIC, broth microdilution; format: cell-based; conditions: Klebsiella pneumoniae
E. coli HB4 KPC-2 L169A = assay: MIC of recombinant strains; format: cell-based; conditions: Escherichia coli, HB4KPC2L169A; E. coli HB4 expressing KPC-2 L169A in pUCP24
Experimental: (§1) 14.0 (www.eucast.org/clinical_breakpoints).
(§2) Recombinant strains were selected in 10 mg/L of gentamicin-LB agar plates. The β-lactam MICs were determined for the transformants according to the above-described methodology.

E. coli HB4 KPC-2 L169T = assay: MIC of recombinant strains; format: cell-based; conditions: Escherichia coli, HB4KPC2L169T; E. coli HB4 expressing KPC-2 L169T in pUCP24
Experimental: as §1, §2

E. coli HB4 KPC-2 = assay: MIC of recombinant strains; format: cell-based; conditions: Escherichia coli, HB4KPC2; E. coli HB4 expressing KPC-2 in pUCP24
Experimental: as §1, §2

E. coli HB4 KPC-3 D179N = assay: MIC of recombinant strains; format: cell-based; conditions: Escherichia coli, HB4KPC3D179N; E. coli HB4 expressing KPC-3 D179N in pUCP24
Experimental: as §1, §2

[15] = tested on: E. coli HB4 KPC-31 (KPC-3 D179Y); assay: MIC of recombinant strains; format: cell-based; conditions: Escherichia coli; E. coli HB4 expressing KPC-31 (KPC-3 D179Y) in pUCP24
Experimental: as §1, §2

[16] = tested on: E. coli HB4 KPC-35 (KPC-2 L169P); assay: MIC of recombinant strains; format: cell-based; conditions: Escherichia coli; E. coli HB4 expressing KPC-35 (KPC-2 L169P) in pUCP24
Experimental: as §1, §2

E. coli HB4 KPC-3 = assay: MIC of recombinant strains; format: cell-based; conditions: Escherichia coli, HB4KPC3; E. coli HB4 expressing KPC-3 in pUCP24
Experimental: as §1, §2

E. coli HB4 = assay: MIC of recombinant strains; format: cell-based; conditions: Escherichia coli; E. coli HB4 (OmpC- and OmpF-deficient), no KPC
Experimental: as §1, §2

[17] = tested on: K. pneumoniae ST258/KPC-35 (KPC-2 L169P); assay: Single-step mutant frequencies and mutant prevention concentrations; format: cell-based, Klebsiella pneumoniae; conditions: for Imipenem mutant frequency: MH agar, 48 h
Experimental: (§3) The plates were incubated for 48 h at 37°C before the frequency of resistance emergence was calculated as the ratio of the number of colony forming units (CFUs) grown on the antibiotic-containing plate and the number of CFUs on antibiotic-free plates. Mutant prevention concentrations were defined as the lowest concentration of antibiotic combination for which there were zero colonies on all agar plates ([23]). All determinations were conducted in triplicate.

[18] = tested on: K. pneumoniae ST512/KPC-31 (KPC-3 D179Y); assay: as above; format: cell-based, Klebsiella pneumoniae; conditions: for Imipenem mutant frequency: MH agar, 48 h
Experimental: as §3

[19] = tested on: K. pneumoniae ST512/KPC-31; assay: In vitro resistance dynamics (stepwise, 7 days); format: cell-based, Klebsiella pneumoniae; conditions: stepwise resistance development, MH broth, up to 64× MIC
[20] = tested on: K. pneumoniae ST258/KPC-35; assay: In vitro resistance dynamics (stepwise, 7 days); format: cell-based, Klebsiella pneumoniae; conditions: stepwise resistance development, MH broth, up to 64× MIC
KPC-2 = target: T1, KPC-2 (Klebsiella pneumoniae, UniProt Q9F663); assay: Specific β-lactamase activity against imipenem, crude extract; format: biochemical; conditions: hydrolysis of imipenem by KPC-2 crude extract, 297 nm
T1 construct: made in house; host or cells: E. coli HB4 (porin-deficient), plasmid pUCP24
Experimental: (§4) Cultures were centrifuged at 3,500 × g, 15 min at 4°C, resuspended in 10 mL of phosphate-buffered saline (PBS; pH ~7.4) and sonicated with Ultraschall Prozessor UP 200S Hielscher (Teltow, Germany).

KPC-2 L169A = target: T2, KPC-2 L169A (Klebsiella pneumoniae, UniProt Q9F663, L168A); assay: as above; format: biochemical; conditions: hydrolysis of imipenem by KPC-2 L169A crude extract, 297 nm
T2 construct: made in house; host or cells: E. coli HB4 (porin-deficient), plasmid pUCP24
Experimental: as §4

KPC-2 L169T = target: T3, KPC-2 L169T (Klebsiella pneumoniae, UniProt Q9F663, L168T); assay: as above; format: biochemical; conditions: hydrolysis of imipenem by KPC-2 L169T crude extract, 297 nm
T3 construct: made in house; host or cells: E. coli HB4 (porin-deficient), plasmid pUCP24
Experimental: as §4

KPC-3 = target: T4, KPC-3 (Klebsiella pneumoniae, UniProt Q9F663, H272Y); assay: as above; format: biochemical; conditions: hydrolysis of imipenem by KPC-3 crude extract, 297 nm
T4 construct: made in house; host or cells: E. coli HB4 (porin-deficient), plasmid pUCP24
Experimental: as §4

KPC-3 D179N = target: T5, KPC-3 D179N (Klebsiella pneumoniae, UniProt Q9F663, D178N/H272Y); assay: as above; format: biochemical; conditions: hydrolysis of imipenem by KPC-3 D179N crude extract, 297 nm
T5 construct: made in house; host or cells: E. coli HB4 (porin-deficient), plasmid pUCP24
Experimental: as §4

[21] = fold higher than the MIC of the parental strain
[22] = relebactam fixed at 4 mg/L in the combination

C[C@@H](O)[C@H]1C(=O)N2C(C(=O)O)=C(SCCN=CN)C[C@H]12 [IMI, imipenem]
MIC [1]: 0.125 µg/mL (≈ 0.418 µM) | MIC [2]: > 256 µg/mL | MIC [3]: > 256 µg/mL | MIC [4]: > 256 µg/mL | MIC [5]: > 256 µg/mL | MIC [6]: 32 µg/mL (≈ 107 µM) | MIC [7]: 32 µg/mL (≈ 107 µM) | MIC [8]: 0.5 µg/mL (≈ 1.67 µM) | MIC [9]: 256 µg/mL (≈ 855 µM) | MIC [10]: 256 µg/mL (≈ 855 µM) | MIC [11]: > 256 µg/mL | MIC [12]: > 256 µg/mL | MIC [13]: 128 µg/mL (≈ 428 µM) | MIC [14]: 128 µg/mL (≈ 428 µM) | MIC (E. coli HB4 KPC-2 L169A): 8 µg/mL | MIC (E. coli HB4 KPC-2 L169T): 16 µg/mL | MIC (E. coli HB4 KPC-2): 32 µg/mL | MIC (E. coli HB4 KPC-3 D179N): 0.25 µg/mL | MIC [15]: 0.25 µg/mL | MIC [16]: 0.25 µg/mL | MIC (E. coli HB4 KPC-3): 16 µg/mL | MIC (E. coli HB4): 0.125 µg/mL | Mutant prevention concentration relative to baseline MIC [17, 21]: 16 fold | Imipenem mutant frequency ([17]; imipenem concentration 2 mg/L): 8.22×10^−9 | Imipenem mutant frequency ([17]; imipenem concentration 4 mg/L): 5.08×10^−10 | Imipenem mutant frequency ([17]; imipenem concentration 8 mg/L): ≤ 1.69×10^−11 | Mutant prevention concentration [17, 22]: 8 mg/L | Mutant prevention concentration relative to baseline MIC [18, 21]: 64 fold | Imipenem mutant frequency ([18]; imipenem concentration 2 mg/L): 1.29×10^−8 | Imipenem mutant frequency ([18]; imipenem concentration 4 mg/L): 6.10×10^−10 | Imipenem mutant frequency ([18]; imipenem concentration 8 mg/L): ≤ 2.44×10^−11 | Mutant prevention concentration [18, 22]: 8 mg/L | Day on which 64× MIC values were reached [19]: 5 days | Day on which 64× MIC values were reached [20]: 3 days | Specific activity (KPC-2): 0.55 µmol/min/mg | Specific activity (KPC-2 L169A): 0.1 µmol/min/mg | Specific activity (KPC-2 L169T): 0.13 µmol/min/mg | Specific activity (KPC-3): 2.5 µmol/min/mg | Specific activity (KPC-3 D179N): 0.02 µmol/min/mg
